From PMC8803906, “Metabolite Identification and Pharmacokinetic Behavior of Diaveridine in the Plasma of Pigs and Chickens Based on Radioactive Tracing Coupled With LC/MS-IT-TOF Assay” (Frontiers in Veterinary Science, 2022)
Entries after “also recorded” stand apart in the source; their conditions may differ. Like-named read-outs stand apart in the source and are kept apart here.

Legend:
[1] = set-up: method as in PMID 4650364; settings: urine at 8 h after a single oral dose of 10 mg/kg BW TMP; cited from earlier work
[2] = Plasma pharmacokinetics of DVD and its metabolites in pigs after a single oral dose of ^3H-DVD (radioactive tracing, LC-v.ARC/MS-IT-TOF); settings: for t1/2 (elimination half-life): non-compartmental; for Radioactive compound detected/identified in plasma / Concentration in plasma: single oral ^3H-DVD 10 mg/kg BW; for Concentration in plasma: pigs
Text: (§1) Four healthy castrated male pigs (Landrace/Doric Cross, 60-d-old, 30 ± 2 kg) were supplied by the China Breeding Pig Testing Center of Huazhong Agricultural University (Wuhan, China). Six healthy Cobb 500 broiler chickens (three female and three male, 40-d-old, 2.5 ± 0.1 kg) were purchased from Wuhan Chia Tai chicken farm (Wuhan, China). All animals were maintained under standard environmental conditions by using normal husbandry practices and were acclimatized for 1 week. The animals were fed a commercial standard diet and water ad libitum, but were fasted overnight before dose administration and up to 4 h after dose administration. All animal care and experimental protocols were conducted in accordance with the Guide for the Care and Use of Laboratory Animals of Hubei Provincial Laboratory Animal Public Service Center (permit number SYXK 2013-0044) and approved by the Ethics Committee of Huazhong Agricultural University.
(§2) Pigs (n = 4) and chickens (n = 6) were weighed individually and given a single dose of 10 mg/kg BW ^3H-DVD with a specific activity of 0.23 Ci/g. The ^3H-DVD solution was prepared by accurately mixing ^3H-DVD and non-labeled DVD at a mass ratio of 1:96 and diluting it with 0.5% methylcellulose to make a homogeneous suspension with a concentration of 25 mg/ml. The suspension was administered by gastric gavage using a soft stomach tube connected to an injection syringe. About 1.5 ml of blood was collected into heparinized tubes from the anterior venae cavae of pig and the wing veins of chicken at different time points. For pigs, blood was collected before administration and 0.17, 0.33, 0.5, 0.67, 1, 1.5, 2, 4, 6, 8, 12, 24, 48, 72, 168, and 336 h after oral treatment. For chickens, blood was collected before administration and 0.25, 0.5, 1, 1.5, 2, 4, 6, 8, 12, 24, 36, 48, 72, 168, and 336 h after oral dosing. Plasma samples were collected after centrifugation at 4°C and 2,254 × g for 10 min and were stored at −20°C until analysis.
(§3) Plasma samples were completely thawed at room temperature. Each sample was divided into two parts, one was used for the assay of total radioactivity, and the other was subjected to a MCX Solid Phase Extraction (SPE) procedure for the qualitative and quantitative analysis of DVD-related metabolites.
(§4) The total radioactivity assay was conducted in accordance with a previous study with a few modifications ([20]). Briefly, 50 μl of plasma was mixed with 50 μl of 0.1 mol/L EDTA-Na and 50 μl of 30% H2O2 at 50°C in a shaking water bath for 2 h for bleaching. The obtained transparent liquid was mixed with 10 ml of Ultima Gold™ scintillation fluid and was analyzed directly using a Packard Tri-Carb 2900 TR liquid scintillation counter (PerkinElmer Life and Analytical Sciences, Waltham, MA, USA). The scintillation counter data were automatically corrected for counting efficiency using an instrument-stored quench curve that was drawn with a series of sealed quenched ^14C standards. All the samples were analyzed in duplicate and the actual radioactivity of each sample was calculated by subtracting the […].
(§5) A 500 μl plasma sample was adjusted to pH 2.8–3.2 with 1 ml of 1 M hydrochloric acid (HCl), and a […] aliquot of the mixture was placed in a MCX cartridge preconditioned with 3 ml of methanol followed by 3 ml of 0.1 mol/L HCl water. The cartridge was washed with 3 ml of 0.1 mol/L HCl water and then eluted with 5 ml NH4OH/methanol (8:92, v:v). The effluent was concentrated to dryness under a stream of nitrogen at 40°C. The residue was reconstituted in 250 μl of methanol-water (1:9, v:v) before injection onto the LC-v.ARC/MS-IT-TOF system for metabolite identification and quantitation.
(§6) Measurement of total radioactivity in each sample was conducted using a Packard Tri-Carb 2900 TR liquid scintillation counter. The detection time was 10 min for two cycles.

[3] = set-up: method as in PMID 22161732; settings: pig liver microsomes incubated with DVD; cited from earlier work
in vivo = settings: for Radioactive compound detected/identified in plasma / Concentration in plasma: single oral ^3H-DVD 10 mg/kg BW; for Concentration in plasma: chickens
Text: as §1, §2, §3, §4, §5, §6

[4] = system: tester strain TA100 and TA98; set-up: method as in PMID 1922158, PMID 26397222; settings: cited from earlier work
[5] = chickens, cited from earlier work
[6] = set-up: method as in PMID 26212255; settings: cited from earlier work
[7] = pigs, cited from earlier work
[8] = pig plasma, oral ^3H-DVD 10 mg/kg BW
[9] = both, Cobb 500 broiler, in vivo, po, 10 mg/kg
[10] = chicken plasma, oral ^3H-DVD 10 mg/kg BW
[11] = HPLC-UV method, previous studies
[12] = male, Landrace/Doric Cross, pig, in vivo, po, 10 mg/kg

## COc1cc(Cc2cnc(N)nc2N)cc(OC)c1O [4′-demethylated TMP]
[1]
  Content in urine: 1%

## COc1cc(Cc2cnc(N)nc2N)cc(O)c1OC [3′-demethylated TMP]
[1]
  Content in urine: > 30%

## COc1ccc(Cc2cnc(N)nc2N)cc1O [D1, 3′-desmethyl-DVD]
[2]; [8]
  AUC0−∞: 3720 ± 620 ng·h/mL
  ClB (total body clearance): 46 ± 7.67 mL/min/kg
  Cmax (maximum drug concentration): 240 ± 50 ng/mL
  MRT0−∞: 22.93 ± 1.28 h
  MRTLast: 15.23 ± 0.25 h
  Tmax (time to Cmax from time zero): 2 h
  Vd (apparent volume of distribution): 70.38 ± 6.67 L/kg
  t1/2 (elimination half-life): 17.86 ± 1.30 h
[2]; pig plasma
  Radioactive compound detected/identified in plasma: identified; also recorded: detected
[2]; 0.5 h, ND = below the LOQ
  Concentration in plasma: 120 ± 30 ng/mL
[2]; 0.67 h
  Concentration in plasma: 150 ± 20 ng/mL
[2]; 1 h
  Concentration in plasma: 160 ± 40 ng/mL
[2]; 1.5 h
  Concentration in plasma: 190 ± 30 ng/mL
[2]; 2 h
  Concentration in plasma: 240 ± 60 ng/mL
[2]; 4 h
  Concentration in plasma: 160 ± 20 ng/mL
[2]; 6 h
  Concentration in plasma: 100 ± 20 ng/mL
[2]; 8 h
  Concentration in plasma: 80 ± 10 ng/mL
[2]; 12 h
  Concentration in plasma: 80 ± 10 ng/mL
[2]; 24 h
  Concentration in plasma: 60 ± 10 ng/mL
[2]; 48 h
  Concentration in plasma: 20 ± 10 ng/mL
[3]
  Metabolite detected in vitro: detected

## COc1ccc(Cc2cnc(N)nc2N)cc1OC [D0, 5-[(3′,4′-dimethoxyphenyl)methyl]-2,4-pyrimidinediamine, reference compound]
In vivo; both, Cobb 500 broiler, chicken, in vivo
  Tmax (time to Cmax from time zero): 2.0 ± 0.0 h
In vivo; both, Cobb 500 broiler, chicken, in vivo, 10 mg/kg BW
  concentration at 168 h: 90 ± 30 ng/mL
In vivo; both, Cobb 500 broiler, chicken, in vivo, po
  AUC0−∞: 55300 ng·h/mL
In vivo; [9]
  AUC(0-inf): 55300 ± 11500 ng·h/mL
  ClB (total body clearance): 3.17 ± 0.67 mL/min/kg
  Cmax: 1550 ± 390 ng/mL
  MRT inf: 66.2 ± 10.7 h
  MRT last: 43.7 ± 2.42 h
  half-life: 48.3 ± 12.8 h
In vivo; [10]
  Tmax (time to Cmax from time zero): 2 h
In vivo; chicken plasma
  Radioactive compound detected/identified in plasma: identified; also recorded: detected
In vivo; chicken plasma, this study
  Time at which DVD was still detected in plasma: 168 h
[4]; strain TA100 after metabolic activation with hamster S9 mix
  Mutagenicity: mutagenic
[4]; tester strain TA100 and TA98, presence and absence of rat S9 mix
  Mutagenicity: not mutagenic
[5]; [11]
  Cmax: 1450 ng/mL
  Tmax: 3.25 h
[5]; HPLC-UV, ref Li et al. 15
  Time at which DVD was still detected in plasma: 24 h
[6]; kidney
  Withdrawal period: 6.74 days
[6]; liver
  Withdrawal period: 4.94 days
[6]; muscle
  Withdrawal period: 4.77 days
[6]; skin with fat
  Withdrawal period: 4.58 days
[2]; male, Landrace/Doric Cross, pig, in vivo
  Tmax (time to Cmax from time zero): 2.0 ± 0.0 h
[2]; male, Landrace/Doric Cross, pig, in vivo, 10 mg/kg BW
  concentration at 168 h: 60 ± 20 ng/mL
[2]; male, Landrace/Doric Cross, pig, in vivo, po
  AUC0−∞: 33900 ng·h/mL
[2]; [12]
  AUC(0-inf): 33900 ± 5810 ng·h/mL
  ClB (total body clearance): 5 ± 0.83 mL/min/kg
  Cmax: 490 ± 20 ng/mL
  MRT inf: 93 ± 12.6 h
  MRT last: 57.3 ± 1.72 h
  half-life: 66.4 ± 10.1 h
[2]; [8]
  Tmax (time to Cmax from time zero): 2 h
[2]; pig plasma
  Radioactive compound detected/identified in plasma: identified; also recorded: detected
[2]; pig plasma, this study
  Time at which DVD was still detected in plasma: 168 h
[7]; [11]
  Cmax: 430 ng/mL
  Tmax: 1.04 h
[7]; HPLC-UV, ref Li et al. 15
  Time at which DVD was still detected in plasma: 6 h

## COc1ccc(Cc2cnc(N)nc2N)cc1OC1OC(C(=O)O)C(O)C(O)C1O (centres unmarked) [D2, monoglucuronide of 3′-desmethyl-DVD]
In vivo; [10]
  AUC0−∞: 1730 ± 440 ng·h/mL
  ClB (total body clearance): 102 ± 26.3 mL/min/kg
  Cmax (maximum drug concentration): 270 ± 80 ng/mL
  MRT0−∞: 6.20 ± 0.18 h
  MRTLast: 4.66 ± 0.17 h
  Tmax (time to Cmax from time zero): 2 h
  Vd (apparent volume of distribution): 32.45 ± 12.36 L/kg
In vivo; chicken plasma, oral ^3H-DVD 10 mg/kg BW, non-compartmental
  t1/2 (elimination half-life): 3.56 ± 0.44 h
In vivo; chicken plasma
  Radioactive compound detected/identified in plasma: identified; also recorded: detected
In vivo; 1 h
  Concentration in plasma: 120 ± 30 ng/mL
In vivo; 1.5 h
  Concentration in plasma: 230 ± 30 ng/mL
In vivo; 2 h
  Concentration in plasma: 270 ± 90 ng/mL
In vivo; 4 h
  Concentration in plasma: 180 ± 60 ng/mL
In vivo; 6 h
  Concentration in plasma: 140 ± 50 ng/mL
In vivo; 8 h
  Concentration in plasma: 90 ± 30 ng/mL
In vivo; 12 h
  Concentration in plasma: 40 ± 10 ng/mL
[2]; [8]
  AUC0−∞: 17580 ± 2320 ng·h/mL
  ClB (total body clearance): 9.67 ± 1.3 mL/min/kg
  Cmax (maximum drug concentration): 1380 ± 40 ng/mL
  MRT0−∞: 23.01 ± 1.48 h
  MRTLast: 14.91 ± 0.41 h
  Tmax (time to Cmax from time zero): 2 h
  Vd (apparent volume of distribution): 15.39 ± 3.28 L/kg
  t1/2 (elimination half-life): 18.26 ± 1.70 h
[2]; pig plasma
  Radioactive compound detected/identified in plasma: identified; also recorded: detected
[2]; 0.17 h, ND = below the LOQ
  Concentration in plasma: 100 ± 30 ng/mL
[2]; 0.33 h, ND = below the LOQ
  Concentration in plasma: 260 ± 110 ng/mL
[2]; 0.5 h, ND = below the LOQ
  Concentration in plasma: 520 ± 150 ng/mL
[2]; 0.67 h
  Concentration in plasma: 610 ± 190 ng/mL
[2]; 1 h
  Concentration in plasma: 690 ± 200 ng/mL
[2]; 1.5 h
  Concentration in plasma: 1230 ± 40 ng/mL
[2]; 2 h
  Concentration in plasma: 1380 ± 40 ng/mL
[2]; 4 h
  Concentration in plasma: 660 ± 50 ng/mL
[2]; 6 h
  Concentration in plasma: 500 ± 80 ng/mL
[2]; 8 h
  Concentration in plasma: 410 ± 70 ng/mL
[2]; 12 h
  Concentration in plasma: 350 ± 60 ng/mL
[2]; 24 h
  Concentration in plasma: 270 ± 80 ng/mL
[2]; 48 h
  Concentration in plasma: 90 ± 10 ng/mL
[3]
  Metabolite detected in vitro: no D2 was found
